Reference: patent US6734168B2, “Endothelial monocyte activating polypeptide II: a mediator which activates host response” (The Trustees of Columbia University in the City of New York, priority 1993, dated 2004)

How the values were obtained:
human PMNs [1] = test: PMN migration in microchemotaxis chambers; type: cell-based; set-up: key to PMN MIGRATION: (+) indicates the peptide induced PMN migration; (−) indicates the peptide did not induce PMN migration above levels seen in controls which contained no chemotactic stimulus
Protocol: Assessment of mononuclear phagocyte (mononuclears) and polymorphonuclear leukocyte (PMN) migration. Human peripheral blood monocytes were isolated from the blood of normal healthy volunteers (30). Blood was centrifuged on Hisopaque 1077 (Sigma, St. Louis, Mo.), the mononuclear fraction was obtained, washed twice in Earle's balanced salt solution, resuspended in RPMI 1640 containing human serum (10%; Gemini, Calabasas, Calif.), plated on tissue culture dishes and incubated at 37° C. for 1-2 hrs. Nonadherent cells were removed by washing the plate twice with balanced salt solution, and adherent cells were harvested by incubation with calcium-magnesium free buffer containing EDTA (2 mM) for 15 min at 37° C., followed by extensive washing. PMNs were prepared by centrifugation over Hisopaque 1119 as per the manufacturer's protocol (Sigma). Chemotaxis assays were performed in microchemotaxis chamber (NeuroProbe, Bethesda, Md.) containing Nucleopore polycarbonate membranes (5 μm; Nucleopore, Pleasonton, Calif.). Mononuclears or PMNs were suspended in RPMI 1640 containing fetal bovine serum (1%) and 10^4 cells were added per well to the upper chamber. The chemotactic stimulus was added to the indicated chamber, and assays were performed in quadruplicate over a 3 hr or 45 min incubation period at 37° C., with mononuclear cells or PMNs, respectively, after which non-migrating cells were removed, membranes were fixed in methanol, migrating cells were visualized with Wright's stain. Cells in nine high-power fields were counted, and the mean and standard error of the mean (SEM) were determined.
Cell migration was studied by adding MPs or PMNs (10^4 cells/well) resuspended in RPMI 1640 with fetal calf serum (1%; Gemini) to the upper wells of a microchemotaxis chamber (Neuro Probe, Bethesda, Md.) containing Nucleopore polycarbonate membranes (5 μm, Nucleopore, Pleasanton Calif.), as described (7,29-30). The chemotactic stimulus was placed in the upper or lower chamber, as indicated, and cells were allowed to migrate for 3 hrs (for MPs) or 45 min (for PMNs) at 37° C. Following removal of non-migrating cells, membranes were fixed in methanol and migrating cells were visualized with Wright's stain. Assays were performed in quadruplicate, and cells were counted in nine high-power fields in each case (mean±SEM is shown in the figures).
Migration of PMNs and MPs—Migration was studied using cells (10^4 and 10^3 cells/well form PMNs and MPs, respectively) resuspended in RPMI 1640 with fetal calf serum (1%) added to the upper wells of a microchemotaxis chamber (Neuro Probe, Bethesda, Md.) containing Nucleopore polycarbonate membranes (5 um, Nucleopor, Pleasanton, Calif.), as described (13, 22, 35). The stimulus was placed in the upper or lower chamber, as indicated, and the cells were allowed to migrate for 3 h (for MPs) or 45 min (for PMNs) at 37° C. Following removal of nonmigrating cells, membranes were fixed in methanol, and migrating cells were visualized with Wright's stain. Assays were performed in quadruplicate, and cells were counted in […] high-power fields in each case (mean±S.E. is shown in the figures).

human PMNs [2] = test: [Ca2+]i measurement in PMNs (fura-2); type: cell-based
Protocol: [Ca^2+1]i measurements. PMNs or MPs (2×10^7 cells in each case) were incubated with fura-2 AM (1 μM) and pluronic detergent (0.02%) for 12 min at room temperature, diluted sixfold, and incubated for a further 30 min at room temperature to allow for complete hydrolysis of the dye. Cells were then resuspended in HEPES-buffered saline at 5×10^5 cells/ml (32). For experiments using MPs, sulfinpyrazone (0.5 mM) was included at all steps to minimize both dye sequestration into intracellular organelles and dye efflux (33). Fluorescence of fura-2 was monitored at 37° C. in a thermostatically-controlled cuvette installed in a Perkin Elmer Model 650-40 fluorescense spectrophotometer. Calibration of [Ca^2+]i was performed as described (34).
For determination of [Ca^2+] in PMSs and MPs, cells (2×10^7 in each case) were incubated with fura-2 AM (1 um) and pluronci detergent (0.02%) at room temperature, diluted 6-fold, and incubated for a further 30 min at room temperature to allow for complete hydrolysis of the dye. Cells were then resuspended in HEPES-buffered saline at 5×10^5 cells/ml (32). For MPs, sulfinpyrazone (0.5 mM) was included at all steps to minimize both dye sequestration into intracellular organelles and dye efflux (33). Fluorescence of fura-2 was monitored at 37° C. in a thermostatically controlled cuvette installed in a Perkin Elmer model 650-40 fluorescence spectrophotometer. Calibration of [Ca^2+] was performed as described (34).

With “ASRLDLRIGRIVTAKY [residues #6-20 from EMAP II, Cys to Arg substitution at position #15, and a C-terminal Tyr]” the “Dose above which PMN migration reached an apparent maximum” value (human PMNs [1]; data not shown) was greater than 1 nM, the EC50 (human PMNs [1]; four experiments, PMNs from three individuals, read-out: Peptide concentration for half-maximal PMN migration) was 0.15 to 0.3 nM and the “Induction of PMN migration (chemotaxis)” value (human PMNs [1]; microchemotaxis chamber, 45 min at 37° C.) was “led to induction of migration”. For the same sequence, the “PMN migration at 100 pM peptide relative to fMLP at 1 μM” value (human PMNs [1]; peptide 100 pM) was “roughly comparable”, the “Concentration range over which effect on PMN migration was dose-dependent” value (human PMNs [1]; peptide added to the lower well) was 10 to 10000 pM and the “PMN MIGRATION” value (human PMNs [1]; peptides 100 pM in each case) was “+”. The “Rise in [Ca2+]i in PMNs” value (human PMNs [2]) was “induced a rise in [Ca^2+]i”.
